Earlier results in US12296036B2, “Method for dyeing keratinous material, including the application of an organosilicon compound, a dyeing compound, a sealing reagent and an alkaline pre-treatment agent” (HENKEL AG & CO. KGAA, priority 2021, dated 2025).

SMILES	solubility in water (25° C.)	further results
O=C([O-])C1=NN(c2ccc(S(=O)(=O)[O-])cc2)C(=O)C1N=Nc1ccc(S(=O)(=O)[O-])cc1.[Na+].[Na+].[Na+] (centres unmarked) [Acid Yellow 23, trisodium salt of 4,5-dihydro-5-oxo-1-(4-sulfophenyl)-4-((4-sulfophenyl)azo)-1H-pyrazole-3-carboxylic acid]		solubility in water (in words) (in water at 25° C.): readily soluble
CCN(Cc1cccc(S(=O)(=O)[O-])c1)c1ccc(C(=C2C=CC(=[N+](CC)Cc3cccc(S(=O)(=O)[O-])c3)C=C2)c2ccccc2S(=O)(=O)[O-])cc1.[Na+].[Na+] [Acid Blue 9]		water solubility (25° C.): more than 20 wt. %
O=C([O-])c1c(Cl)c(Cl)c(Cl)c(Cl)c1-c1c2cc(Br)c(=O)c(Br)c-2oc2c(Br)c([O-])c(Br)cc12.[Na+].[Na+] [Acid Red 92, disodium salt of 3,4,5,6-tetrachloro-2-(1,4,5,8-tetrabromo-6-hydroxy-3-oxanthene-9-yl) benzoic acid]	greater than 10 g/L	
O=S(=O)([O-])c1ccc(N=Nc2c(O)ccc3ccccc23)cc1.[Na+] [Acid Orange 7, sodium salt of 4-[(2-hydroxy-1-naphthyl)azo]benzene sulphonate]	more than 7 g/L	
Nc1cc(S(=O)(=O)[O-])cc2cc(S(=O)(=O)[O-])c(N=Nc3ccccc3)c(O)c12.[Na+].[Na+] [Acid Red 33, disodium salt of 5-amino-4-hydroxy-3-(phenylazo)-naphthalene-2,7-disulfonate]	2500 µg/mL	
